Measured values reported in patent EP0678100B1, “SYNTHETIC AMPHIPATHIC PEPTIDES WITH ANTIMICROBIAL ACTIVITY” (PIONEER HI-BRED INTERNATIONAL, INC., priority 1993, dated 1998).
Converted amounts (≈) assume the structure as drawn. Read-outs that look alike come from different tables or passages of the source. Residues, ends and D or L forms follow the SMILES beside them. No end group written: not given here.

Tests used:
F. moniliforme = details: for MCIC: Minimum Complete Inhibitory Concentration, achieving a score of 3 or greater
A. flavus = details: for MCIC: Minimum Complete Inhibitory Concentration, achieving a score of 3 or greater
[1] = F. graminearum, minimum inhibitory concentration, achieving a score of 1 or greater
[2] = F. moniliforme, minimum inhibitory concentration, achieving a score of 1 or greater
[3] = A. flavus, minimum inhibitory concentration, achieving a score of 1 or greater

`CC[C@H](C)[C@H](NC(=O)CNC(=O)[C@@H](NC(=O)[C@@H](NC(=O)[C@@H](NC(=O)CNC(=O)[C@@H]1CCCN1C(=O)CNC(=O)[C@H](C)NC(=O)[C@H](CCCCN)NC(=O)[C@@H](NC(=O)[C@H](CCCCN)NC(=O)[C@H](CCCCN)NC(=O)[C@@H]1CCCN1C(=O)[C@@H](NC(=O)[C@H](Cc1c[nH]cn1)NC(=O)[C@H](CCCCN)NC(=O)[C@@H](NC(=O)[C@H](C)NC(=O)[C@H](CCCCN)NC(=O)[C@H](CCC(=O)O)NC(=O)[C@@H](NC(=O)[C@H](CCCCN)NC(=O)[C@@H](N)CCCCN)[C@@H](C)CC)[C@@H](C)CC)[C@@H](C)CC)[C@@H](C)CC)C(C)C)[C@@H](C)O)[C@@H](C)CC)C(=O)N[C@@H](C)C(=O)N[C@@H](Cc1c[nH]cn1)C(=O)N[C@@H](C)C(=O)N[C@@H](CCCCN)C(=O)N[C@@H](CO)C(=O)N[C@@H](CCC(N)=O)C(=O)N[C@@H](CC(C)C)C(=O)N[C@@H](Cc1c[nH]c2ccccc12)C(=O)O` [Peptide 1] (H-KKIEKAIKHIPKKIKAGPGVTIGIAHAKSQLW-OH) gave an MIC (F. graminearum; [1]) of 17 pg/mL (≈ 0.00487 nM) and an MIC (F. moniliforme; [2]) of 17.

`CC[C@H](C)[C@H](NC(=O)CNC(=O)[C@@H](NC(=O)[C@@H](NC(=O)[C@@H](NC(=O)CNC(=O)[C@@H]1CCCN1C(=O)CNC(=O)[C@H](C)NC(=O)[C@H](CCCCN)NC(=O)[C@H](Cc1c[nH]c2ccccc12)NC(=O)[C@H](Cc1c[nH]cn1)NC(=O)[C@H](CCCNC(=N)N)NC(=O)[C@H](C)NC(=O)[C@H](CC(C)C)NC(=O)[C@H](C)NC(=O)[C@H](CCCNC(=N)N)NC(=O)[C@H](CC(C)C)NC(=O)[C@H](C)NC(=O)[C@H](CCCCN)NC(=O)[C@H](CCCCN)NC(=O)[C@H](CC(C)C)NC(=O)[C@@H](N)CCCCN)C(C)C)[C@@H](C)O)[C@@H](C)CC)C(=O)N[C@@H](C)C(=O)N[C@@H](Cc1c[nH]cn1)C(=O)N[C@@H](C)C(=O)N[C@@H](CCCCN)C(=O)N[C@@H](CO)C(=O)N[C@@H](CCC(N)=O)C(=O)N[C@@H](CC(C)C)C(=O)N[C@@H](Cc1c[nH]c2ccccc12)C(=O)O` [Peptide 2] (H-KLKKALRALARHWKAGPGVTIGIAHAKSQLW-OH) was tested, and the MIC (F. graminearum; [1]) was 14 pg/mL (≈ 0.00411 nM) and the MIC (F. moniliforme; [2]) was 14.

In the case of `CC[C@H](C)[C@H](NC(=O)CNC(=O)[C@@H](NC(=O)[C@@H](NC(=O)[C@@H](NC(=O)CNC(=O)[C@@H]1CCCN1C(=O)CNC(=O)[C@H](C)NC(=O)[C@H](CC(C)C)NC(=O)[C@H](C)NC(=O)[C@H](CCCNC(=N)N)NC(=O)[C@@H](NC(=O)[C@H](CCCNC(=N)N)NC(=O)[C@@H](NC(=O)[C@H](CCCNC(=N)N)NC(=O)[C@H](CCCNC(=N)N)NC(=O)[C@@H]1CCCN1C(=O)[C@@H](NC(=O)[C@H](Cc1c[nH]cn1)NC(=O)[C@H](CCCNC(=N)N)NC(=O)[C@@H](NC(=O)[C@H](C)NC(=O)[C@H](CCCNC(=N)N)NC(=O)[C@H](Cc1ccc(O)cc1)NC(=O)[C@@H](NC(=O)[C@H](CCCNC(=N)N)NC(=O)[C@H](CCCNC(=N)N)NC(=O)[C@@H](NC(=O)[C@H](C)NC(=O)[C@H](CCCNC(=N)N)NC(=O)[C@@H](N)CCC(N)=O)C(C)C)[C@@H](C)CC)[C@@H](C)CC)[C@@H](C)CC)[C@@H](C)CC)[C@@H](C)CC)C(C)C)[C@@H](C)O)[C@@H](C)CC)C(=O)N[C@@H](C)C(=O)N[C@@H](Cc1c[nH]cn1)C(=O)N[C@@H](C)C(=O)N[C@@H](CCCCN)C(=O)N[C@@H](CO)C(=O)N[C@@H](CCC(N)=O)C(=O)N[C@@H](CC(C)C)C(=O)N[C@@H](Cc1c[nH]c2ccccc12)C(=O)O` [Peptide 3] (H-QRAVRRIYRAIRHIPRRIRIRALAGPGVTIGIAHAKSQLW-OH), the “% Inhibition of Growth” value (P. syringae; concentration 3.00 µg/ml) is reported as 0%, the “% Inhibition of Growth” value (P. syringae; concentration 6.25 µg/ml) is reported as 11% and the “% Inhibition of Growth” value (P. syringae; concentration 12.5 µg/ml) is reported as 30%. The “% Inhibition of Growth” value (P. syringae; concentration 25 µg/ml) was 48%, the “% Inhibition of Growth” value (P. syringae; concentration 50 µg/ml) was 52% and the “% Inhibition of Growth” value (E. coli; concentration 3.00 µg/ml) was 0%. The “% Inhibition of Growth” value (E. coli; concentration 6.25 µg/ml) was 0%, the “% Inhibition of Growth” value (E. coli; concentration 12.5 µg/ml) was 0% and the “% Inhibition of Growth” value (E. coli; concentration 25 µg/ml) was 0%. For the same molecule, the “% Inhibition of Growth” value (E. coli; concentration 50 µg/ml) was 0%, the “% Inhibition of Growth” value (E. stewartii; concentration 3.00 µg/ml) was 0% and the “% Inhibition of Growth” value (E. stewartii; concentration 6.25 µg/ml) was 0%. The “% Inhibition of Growth” value (E. stewartii; concentration 12.5 µg/ml) was 49%, the “% Inhibition of Growth” value (E. stewartii; concentration 25 µg/ml) was 80% and the “% Inhibition of Growth” value (E. stewartii; concentration 50 µg/ml) was 100%. For the same molecule, the MIC (F. graminearum; [1]) was 13 pg/mL (≈ 0.00281 nM) and the MIC (F. moniliforme) was 13.

With `CC[C@H](C)[C@H](NC(=O)CNC(=O)[C@@H](NC(=O)[C@@H](NC(=O)[C@@H](NC(=O)CNC(=O)[C@@H]1CCCN1C(=O)CNC(=O)[C@H](C)NC(=O)[C@H](CC(C)C)NC(=O)[C@H](C)NC(=O)[C@H](CCCNC(=N)N)NC(=O)[C@@H](NC(=O)[C@H](CCCCN)NC(=O)[C@@H](NC(=O)[C@H](CCCCN)NC(=O)[C@H](CCCCN)NC(=O)[C@@H]1CCCN1C(=O)[C@@H](NC(=O)[C@H](Cc1c[nH]cn1)NC(=O)[C@H](CCCCN)NC(=O)[C@@H](NC(=O)[C@H](C)NC(=O)[C@H](CCCCN)NC(=O)[C@H](CCC(=O)O)NC(=O)[C@@H](NC(=O)[C@H](CCCCN)NC(=O)[C@H](CCCCN)NC(=O)[C@@H](NC(=O)[C@H](C)NC(=O)[C@H](CCCNC(=N)N)NC(=O)[C@@H](N)CCC(N)=O)C(C)C)[C@@H](C)CC)[C@@H](C)CC)[C@@H](C)CC)[C@@H](C)CC)[C@@H](C)CC)C(C)C)[C@@H](C)O)[C@@H](C)CC)C(=O)N[C@@H](C)C(=O)N[C@@H](Cc1c[nH]cn1)C(=O)N[C@@H](C)C(=O)N[C@@H](CCCCN)C(=O)N[C@@H](CO)C(=O)N[C@@H](CCC(N)=O)C(=O)N[C@@H](CC(C)C)C(=O)N[C@@H](Cc1c[nH]c2ccccc12)C(=O)O` [Peptide 4] (H-QRAVKKIEKAIKHIPKKIKIRALAGPGVTIGIAHAKSQLW-OH) the MIC (F. graminearum; [1]) was 13 pg/mL (≈ 0.00296 nM) and the MIC (F. moniliforme; [2]) was 17.

`CC[C@H](C)[C@H](NC(=O)CNC(=O)[C@@H](NC(=O)[C@@H](NC(=O)[C@@H](NC(=O)CNC(=O)[C@@H]1CCCN1C(=O)CNC(=O)[C@H](C)NC(=O)[C@@H](NC(=O)[C@H](C)NC(=O)[C@H](CCCNC(=N)N)NC(=O)[C@H](CCC(N)=O)NC(=O)[C@H](CC(C)C)NC(=O)[C@H](C)NC(=O)[C@H](CCCNC(=N)N)NC(=O)[C@@H](NC(=O)[C@H](CCCCN)NC(=O)[C@H](CCCNC(=N)N)NC(=O)[C@H](CCCNC(=N)N)NC(=O)[C@H](CC(C)C)NC(=O)[C@H](Cc1c[nH]c2ccccc12)NC(=O)[C@H](CCCNC(=N)N)NC(=O)[C@@H](NC(=O)[C@H](CC(C)C)NC(=O)[C@H](CCCCN)NC(=O)[C@H](CCCNC(=N)N)NC(=O)[C@@H](NC(=O)[C@H](CC(C)C)NC(=O)[C@@H](N)CCCCN)[C@@H](C)CC)[C@@H](C)CC)[C@@H](C)CC)C(C)C)C(C)C)[C@@H](C)O)[C@@H](C)CC)C(=O)N[C@@H](C)C(=O)N[C@@H](Cc1c[nH]cn1)C(=O)N[C@@H](C)C(=O)N[C@@H](CCCCN)C(=O)N[C@@H](CO)C(=O)N[C@@H](CCC(N)=O)C(=O)N[C@@H](CC(C)C)C(=O)N[C@@H](Cc1c[nH]c2ccccc12)C(=O)O` [Peptide 7] (H-KLIRKLIRWLRRKIRALQRAVAGPGVTIGIAHAKSQLW-OH) showed an MIC (F. graminearum) of 10 pg/mL (≈ 0.00229 nM), an MIC (A. flavus; [3]) of 40 and an MIC (F. moniliforme; [2]) of 10.

`CC[C@H](C)[C@H](NC(=O)[C@H](C)NC(=O)[C@H](CCCNC(=N)N)NC(=O)[C@H](Cc1ccc(O)cc1)NC(=O)[C@@H](NC(=O)[C@H](CCCNC(=N)N)NC(=O)[C@@H](N)CCCNC(=N)N)[C@@H](C)CC)C(=O)N[C@@H](CCCNC(=N)N)C(=O)N[C@@H](Cc1c[nH]cn1)C(=O)N[C@H](C(=O)N1CCC[C@H]1C(=O)N[C@@H](CCCNC(=N)N)C(=O)N[C@@H](CCCNC(=N)N)C(=O)N[C@H](C(=O)N[C@@H](CCCNC(=N)N)C(=O)NCC(=O)N[C@@H](Cc1c[nH]c2ccccc12)C(=O)N[C@@H](CC(C)C)C(=O)N[C@@H](CCCNC(=N)N)C(=O)N[C@@H](CCCNC(=N)N)C(=O)N[C@H](C(=O)NCC(=O)N[C@@H](CCCNC(=N)N)C(=O)N[C@@H](CCCNC(=N)N)C(=O)N[C@H](C(=O)N[C@@H](CCC(=O)O)C(=O)N[C@@H](CCCNC(=N)N)C(=O)N[C@H](C(=O)NCC(=O)N[C@@H](CCC(N)=O)C(=O)N[C@@H](Cc1c[nH]cn1)C(=O)O)C(C)C)[C@@H](C)CC)[C@@H](C)CC)[C@@H](C)CC)[C@@H](C)CC` [Peptide 9] (H-RRIYRAIRHIPRRIRGWLRRIGRRIERVGQH-OH) showed an MIC (F. graminearum; [1]) of 10 pg/mL (≈ 0.0025 nM), an MIC (A. flavus) of 15 and an MIC (F. moniliforme) of 10.

Work on `CC[C@H](C)[C@H](NC(=O)[C@H](C)NC(=O)[C@H](CCCCN)NC(=O)[C@H](CCC(=O)O)NC(=O)[C@@H](NC(=O)[C@H](CCCCN)NC(=O)[C@@H](N)CCCCN)[C@@H](C)CC)C(=O)N[C@@H](CCCCN)C(=O)N[C@@H](Cc1c[nH]cn1)C(=O)N[C@H](C(=O)N1CCC[C@H]1C(=O)N[C@@H](CCCCN)C(=O)N[C@@H](CCCCN)C(=O)N[C@H](C(=O)N[C@@H](CCCCN)C(=O)N[C@@H](CC(C)C)C(=O)N[C@@H](CCCCN)C(=O)N[C@@H](CCCCN)C(=O)N[C@@H](C)C(=O)N[C@@H](CC(C)C)C(=O)N[C@@H](CCCNC(=N)N)C(=O)N[C@@H](C)C(=O)N[C@@H](CC(C)C)C(=O)N[C@@H](C)C(=O)N[C@@H](CCCNC(=N)N)C(=O)N[C@@H](Cc1c[nH]cn1)C(=O)N[C@@H](Cc1c[nH]c2ccccc12)C(=O)N[C@@H](CCCCN)C(=O)O)[C@@H](C)CC)[C@@H](C)CC` [Peptide 10] (H-KKIEKAIKHIPKKIKLKKALRALARHWK-OH) yielded an MIC (F. graminearum; [1]) of 10 pg/mL (≈ 0.00296 nM), an MIC (A. flavus; [3]) of 80 and an MIC (F. moniliforme; [2]) of 7.5.

Cecropin A [reference compound] gave an MCIC (F. graminearum) of over 80 µg/mL, an MIC (F. graminearum) of 60 pg/mL and an MCIC (A. flavus; A. flavus) of over 80 µg/mL. The MIC (A. flavus; [3]) was 80, the MCIC (F. moniliforme; F. moniliforme) was over 80 µg/mL and the MIC (F. moniliforme; [2]) was 80.

In the case of “IRALQRAVRHPRAIRRIYRGWKKAIRAGPGVTIGIAHAKSQLW [Peptide 6]”, the MIC (F. graminearum; [1]) is reported as 10 pg/mL, the MIC (A. flavus; [3]) is reported as 80 and the MIC (F. moniliforme; [2]) is reported as 15.

For Mastoparan [reference compound], the MCIC (F. graminearum) was 10 µg/mL, the MIC (F. graminearum) was 5 pg/mL and the MCIC (A. flavus; A. flavus) was 40 µg/mL. For the same molecule, the MIC (A. flavus; [3]) was 20, the MCIC (F. moniliforme; F. moniliforme) was 10 µg/mL and the MIC (F. moniliforme; [2]) was 2.5.
